Experimental data as given in patent US12673039B2, “Methods of inducing autophagy using coumarin derivatives and related compounds” (Buck Institute for Research on Aging, priority 2019, dated 2026).

system: TFEB; assay: TFEB activation screen, % activation/control at 24 and 48 hrs (Table 1); type: cell-based, human; settings: Homo sapiens, 24 h
Experimental: FIG. 25, panels A-B::AIC106 identified as a lead compound in a TFEB-transcription based screen. Panel A) Rat Neuronal N27 cells were transfected with a vector construct driving expression of secreted-Gaussia luciferase (Sec-Gaussia) in control of 2 kb human TFEB promoter. Next day, cells were seeded into 96-well cell culture plate and exposed to compounds (30 μM) from natural product library (NPL-640) or DMSO-control. After 24 and 48 hours of compound treatment supernatant from the cells was collected and TFEB promoter activity determined by quantifying luciferase activity. Panel B) Effects of AIC106 treatment on HLH-30 expression after 24 hours treatment were determined by immunoblot against GFP in young adult stage of GFP-tagged HLH-30 strain (MAH235) following total protein extraction.
It was discovered that small structural alterations in the C1 compound can have significant effects on the degree of TFEB activation (see, e.g., FIG. 17) the screening systems described herein identified a number of structures related to C1 that similarly induce TFEB.
In vitro drug screening studies. […] We utilized for these studies a 3000 compound natural product derivative library (Timtec, Newark, DE) in […] transfected with a sensitive TFEB promotor-Gaussian luciferase construct. […] C1 is a coumarin-related compound, part of a family of natural benzopyrones found in many edible plants.
To identify novel transcriptional inducers of TFEB, we transfected rat neuronal N27 cells with a vector driving expression of secreted-luciferase under control of the human TFEB promoter. […] AIC106 belongs to a family of coumarin compounds containing an active benzopyrone ring.

Row | Compound | activity at 30 µM [%]
1 | O=CC1Cc2cc3c4c(c2OC1=O)CCCN4CCC3 (centres unmarked) [E6] | 367
2 | O=c1oc2c(Cl)cc(Cl)cc2c(-c2ccc(Cl)cc2)c1-c1ccccc1 [C6] | 104
3 | O=c1oc2ccc(Cl)cc2c(-c2ccccc2)c1-c1ccc(Cl)cc1Cl [B5] | 83.2
4 | Cc1cc2oc(=O)c(-c3ccccc3Cl)c(-c3ccccc3)c2cc1Cl [A6] | 76.6
5 | Cc1ccc2c(-c3ccccc3)c(-c3ccc(Br)cc3)c(=O)oc2c1 [B4] | 390
6 | O=c1oc2cc(O)ccc2c(-c2ccccc2)c1-c1cccc(Cl)c1 [H2] | 334
7 | Cc1cc2oc(=O)c(-c3ccc(Br)cc3)c(-c3ccccc3)c2cc1Cl [G4] | 390
8 | O=c1oc2cc(O)ccc2c(Cc2ccccc2)c1-c1ccccc1 [G2] | 341
9 | O=c1oc2ccccc2c(-c2ccccc2)c1-c1ccccc1 [H4] | 346
10 | O=c1oc2ccc(Br)cc2c(-c2ccccc2Cl)c1-c1cccc(Cl)c1 [F3] | 302
11 | O=C(O)c1ccccc1-c1c2ccc(=O)cc-2oc2cc(O)ccc12 [A2] | 293
12 | O=c1oc2ccc(Cl)cc2c(-c2ccccc2)c1-c1ccccc1Cl [D4] | 369
13 | O=c1oc2cc(O)ccc2c(-c2ccccc2)c1-c1ccccc1 [C2] | 311
14 | COc1ccc(-c2c(-c3ccccc3)c3ccc(O)cc3oc2=O)c(Cl)c1OC [D3] | 381
15 | O=c1oc2ccccc2c(-c2ccccc2)c1-c1ccc(Cl)cc1Cl [B3] | 338
16 | Cc1cc2oc(=O)c(-c3ccccc3)c(-c3ccccc3)c2cc1Cl [A5] | 62.3
17 | Cc1ccc2oc(=O)c(-c3ccc(Cl)cc3Cl)c(-c3ccc(Cl)cc3)c2c1 [B6] | 91.2
18 | O=c1oc2ccc(Br)cc2c(-c2ccccc2)c1-c1ccc(Br)cc1 [E5] | 92.5
19 | O=c1oc2c(Cl)cc(Cl)cc2c(-c2ccccc2)c1-c1ccc(Cl)cc1Cl [F5] | 105

Row | Compound | activity at 30 µM [%]
20 | O=c1oc2c(Cl)cc(Cl)cc2c(-c2ccccc2)c1-c1ccccc1 [C5] | 87.2
21 | O=c1oc2c(Br)cc(Cl)cc2c(-c2ccccc2)c1-c1ccc(Br)cc1 [B2] | 331
22 | Cc1cc2oc(=O)c(-c3ccc(Cl)cc3Cl)c(-c3ccc(Cl)cc3)c2cc1Cl [D6] | 360
23 | CC(C)(C)OC(=O)C1Cc2cc3c4c(c2OC1=O)CCCN4CCC3 (centres unmarked) [C3 ST083673] | 328
24 | O=c1oc2ccc(Br)cc2c(-c2ccccc2)c1-c1cccc(Cl)c1 [F4] | 365
25 | O=c1oc2cc(O)ccc2c(Cc2ccc(Cl)cc2)c1-c1ccccc1 [A3] | 324
26 | O=c1oc2cc(O)cc(-c3ccccc3)c2cc1-c1ccccc1Cl [C3 ST081388] | 317
27 | O=C(O)C1Cc2cc3c4c(c2CC1=O)CCCN4CCC3 (centres unmarked) [D2] | 336
28 | Cc1ccc2oc(=O)c(-c3ccccc3)c(-c3ccccc3)c2c1 [H5] | 70.1
29 | Cc1cc2oc(=O)c(-c3ccc(Cl)cc3Cl)c(-c3ccccc3)c2cc1Cl [A4] | 361
30 | O=c1oc2ccc(Cl)cc2c(-c2ccc(Cl)cc2)c1-c1ccc(Cl)cc1 [H3] | 361
31 | O=c1oc2ccccc2c(-c2ccccc2)c1-c1cccc(Br)c1 [G5] | 65.1
32 | Cc1cc2oc(=O)c(-c3ccc(Cl)cc3)c(-c3ccc(Cl)cc3)c2cc1Cl [D5] | 103
33 | C=CCOc1ccc2c(-c3ccccc3)c(-c3cccc(Br)c3)c(=O)oc2c1 [E4] | 400
34 | O=c1oc2ccc(Br)cc2c(-c2ccc(Cl)cc2)c1-c1ccc(Cl)cc1Cl [C4] | 432
35 | O=c1oc2ccc(Br)cc2c(-c2ccccc2)c1-c1ccccc1Cl [E3] | 347
36 | O=c1oc2ccc(Br)cc2c(-c2ccc(Cl)cc2)c1-c1ccc(Cl)cc1 [G3] | 365
37 | COc1ccc(-c2c(-c3ccccc3)c3ccc(O)cc3oc2=O)c(Cl)c1 [F2] | 341

molecular target: T1, DAF-12 (Caenorhabditis elegans, UniProt G5EFF5); assay: Mammalian one-hybrid DAF-12 activity assay (HEK293T); type: cell-based, human; settings: compound alone
T1 construct: expressed in transfected cells; host or cells: HEK293T
T1 sequence (G5EFF5 516-753 limits assumed): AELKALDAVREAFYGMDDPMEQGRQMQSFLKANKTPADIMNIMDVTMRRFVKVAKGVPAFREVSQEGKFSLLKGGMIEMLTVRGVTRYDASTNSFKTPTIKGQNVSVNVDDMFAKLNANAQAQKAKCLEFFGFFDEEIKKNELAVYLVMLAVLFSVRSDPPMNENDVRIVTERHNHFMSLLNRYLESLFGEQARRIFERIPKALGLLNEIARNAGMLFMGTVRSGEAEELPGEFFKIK
Experimental: FIG. 10 illustrates that coumarin 106 (“C1”, “AIC106”) inhibits induction of the worm FXR homologue DAF-12. The ability of C1 (10 μM) to inhibit activation of the FXR worm homologue DAF-12 by its ligand dafachronic acid (Df acid); values are fold activity induction versus untreated controls; ****p<0.01 versus GW; **p<0.05 versus GW.
FIG. 22, panels A-H: AIC106-induced HLH-30 expression is mediated by the nuclear hormone receptor DAF-12. Panel A) The upstream promoter region (2 kB) of hlh-30 was analyzed by JASPAR CORE database to determine DAF-12 binding sites (1: SEQ ID NO:1, 2: 1: SEQ ID NO:2, 3: SEQ ID NO:3, 4: SEQ ID NO:4, 5: SEQ ID NO:5, 6: SEQ ID NO:6, 7: SEQ ID NO:7, 8: SEQ ID NO:8, 9: SEQ ID NO:9, 10: SEQ ID NO:10, 11: SEQ ID NO:11, 12: SEQ ID NO:12). Panel B) Relative fold change in mRNA of hlh-30 compared to DMSO-control was quantified using qRT-PCR in young adult wild-type N2 and daf-12(rh61rh411) worms post-24 hours treatment with AIC106. [N=3 independent experiments (mean±SD). **p<0.01, by one-way ANOVA with Sidak's multiple comparisons test]. Panel C) Effects of AIC106 on DAF-12 activity was determined in a mammalian one-hybrid assay by quantifying changes in the luciferase activity of DAF-12 ligand (dafachronic acid, DA) induced treatment. [N=3 independent experiments (mean±SD). *p<0.05 **p<0.01 and ***p<0.001, by one-way ANOVA with Tukey's multiple comparisons test]. Panel D) Schematic diagram showing that addition of AIC106 or inhibition of DAF-12 ligand synthesis, which leads to un-liganded DAF-12 may result in enhanced HLH-30 expression. Panel E) Dafadine-A (DFA), a specific inhibitor of key enzyme required for synthesis of DAF-12 ligand induces HLH-30 expression. Immunoblot for GFP was performed on protein lysate of HLH-30; GFP (MAH235) young adult worms treated with DFA or DMSO-control for 24 hours. Panel F) Protection against mitochondrial toxin (FCCP) was determined by quantifying survival of young adult worms treated 24 hours with DFA or DMSO-control. [N=3 independent experiments (mean±SD). **p<0.01, by two-way ANOVA with Tukey's multiple comparisons test]. Panel G) Motor function in day-7 NL5901 worms were quantified by scoring number of thrashes for an individual worm over the period of 30 seconds (dots) in DFA and DMSO-control treatment. [N=3 independent experiments (mean±SD). **p<0.01, by unpaired t-test] […] [N=3 independent experiments (mean±SD). *p<0.05, by one-way ANOVA with Tukey's multiple comparisons test].
FIG. 29, panels A-C: AIC106 modulates DAF-12 activity. […] Luciferase activity was measured to quantify DAF-12 activity. Panel C) Dose dependent increase in DAF-12 activity after treatment with known DAF-12 ligand, dafachronic acid (DA) was determined by quantifying luciferase activity. […]

Row | Compound | DAF-12 activity (luciferase)
38 | dafachronic acid [reference compound] | increase DAF-12 activity in a dose dependent manner
